Results taken from patent publication US9708314B2, “Heterocyclic amide compound” (NISSAN CHEMICAL INDUSTRIES, LTD., priority 2013, dated 2017).

How the values were obtained:
Type in all cases: in vivo
[1] = tested on: transplanted Oryza sativa; assay: Test Example 1: effect on crop, application before weed generation in submerged conditions; details: Seventeenth Table; for a: transplanted Oryza sativa (effect on crop grade): Application herbicide amount 320 g/ha
Procedure, shortened: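 Rating, on a six-step scale from almost no effect (0) to almost completely withered (5), was made three weeks after pre-emergence treatment. Treatment was surface application to flooded pots at g/ha rates, with plants kept at 25° C. to 30° C.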

[2] = tested on: directly sowed Oryza sativa; assay: Test Example 3: effect on crop by application to foliage (Wagner pot, water depth 0.1-0.5 cm); details: Nineteenth Table; application to foliage; application herbicide amount 320 g/ha
Procedure, shortened: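 Plants are raised 14 days from seed in flooded-surface Wagner pots at 25–30 °C, sprayed on stems and leaves with diluted emulsion at a predetermined rate, and rated three weeks on using a 0–5 herbicidal-ratio scale (5 ≥90%).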

Galium spurium = assay: Test Example 4: herbicidal effect by application to foliage (diluvial soil, plastic box); details: for Q (Galium spurium) herbicidal effect grade: foliage application; for Q (Galium spurium) herbicidal effect grade / herbicidal effect, Q (Galium spurium): 320 g/ha
Procedure, shortened: (§1)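 Emulsion-formulated compound, diluted to a predetermined g/ha dose, applied by small sprayer to leaves and stems of 14-day-old seedlings grown in sterilized diluvial soil. Effect rated on 0–5 herbicidal-ratio scale three weeks on.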

[3] = tested on: Beta vulgaris ssp. vulgaris; assay: Test Example 4: effect on crop by application to foliage (diluvial soil, plastic box); details: for f (Beta vulgaris ssp. vulgaris) effect on crop grade: foliage application; for f (Beta vulgaris ssp. vulgaris) effect on crop grade / effect on crop, f (Beta vulgaris ssp. vulgaris): 320 g/ha
Procedure, shortened: as §1

Brassica campestris L. = assay: as above; details: for g (Brassica campestris L.) effect on crop grade: foliage application; for g (Brassica campestris L.) effect on crop grade / effect on crop, g (Brassica campestris L.): 320 g/ha
Procedure, shortened: as §1

Glycine max = assay: as above; details: for c (Glycine max) effect on crop grade: foliage application; for c (Glycine max) effect on crop grade / effect on crop, c (Glycine max): 320 g/ha
Procedure, shortened: as §1

Triticum aestivum = assay: as above; details: for e (Triticum aestivum) effect on crop grade: foliage application; for e (Triticum aestivum) effect on crop grade / effect on crop, e (Triticum aestivum): 320 g/ha
Procedure, shortened: as §1

Zea mays = assay: as above; details: for b (Zea mays) effect on crop grade: foliage application; for b (Zea mays) effect on crop grade / effect on crop, b (Zea mays): 320 g/ha
Procedure, shortened: as §1

[4] = tested on: directly sowed Oryza sativa; assay: as above; details: for d (directly sowed Oryza sativa) effect on crop grade: foliage application; for d (directly sowed Oryza sativa) effect on crop grade / effect on crop, d (directly sowed Oryza sativa): 320 g/ha
Procedure, shortened: as §1

[5] = application to foliage, application herbicide amount 320 g/ha

SMILES	a: transplanted Oryza sativa (effect on crop grade) [1]	b (effect on crop grade) [2]	Q (Galium spurium) herbicidal effect grade (Galium spurium)	f (Beta vulgaris ssp. vulgaris) effect on crop grade [3]	g (Brassica campestris L.) effect on crop grade (Brassica campestris L.)	c (Glycine max) effect on crop grade (Glycine max)	e (Triticum aestivum) effect on crop grade (Triticum aestivum)	b (Zea mays) effect on crop grade (Zea mays)	d (directly sowed Oryza sativa) effect on crop grade [4]	further results
CC(C)c1nnc2c(C(=S)Nc3nnnn3C)ccc(C(F)(F)F)n12 [2-039, 3-Isopropyl-N-(1-methyl-1H-tetrazol-5-yl)-5-(trifluoromethyl)-[1,2,4]triazolo[4,3-a]pyridine-8-carbothioamide]	4 (Herbicidal ratio of 70% or more and less than 90%)	4 (Herbicidal ratio of 70% or more and less than 90%)	4 (Herbicidal ratio of 70% or more and less than 90%)	5 (Herbicidal ratio of 90% or more (almost completely withered))	5 (Herbicidal ratio of 90% or more (almost completely withered))	3 (Herbicidal ratio of 40% or more and less than 70%)	3 (Herbicidal ratio of 40% or more and less than 70%)	4 (Herbicidal ratio of 70% or more and less than 90%)	4 (Herbicidal ratio of 70% or more and less than 90%)	–
CSCCNc1nnc2c(C(=O)Nc3nnnn3C)ccc(C(F)(F)F)n12 [2-080]	2 (Herbicidal ratio of 20% or more and less than 40%)	3 (Herbicidal ratio of 40% or more and less than 70%)	–	–	–	–	–	–	–	herbicidal effect, Q (Galium spurium) (Galium spurium; application to foliage): 4 (Herbicidal ratio of 70% or more and less than 90%); effect on crop, f (Beta vulgaris ssp. vulgaris) ([3]; application to foliage): 5 (Herbicidal ratio of 90% or more (almost completely withered)); effect on crop, g (Brassica campestris L.) (Brassica campestris L.; application to foliage): 5 (Herbicidal ratio of 90% or more (almost completely withered)); effect on crop, c (Glycine max) (Glycine max; application to foliage): 0 (Herbicidal ratio of 5% or less (almost no effect)); effect on crop, e (Triticum aestivum) (Triticum aestivum; application to foliage): 0 (Herbicidal ratio of 5% or less (almost no effect)); effect on crop, b (Zea mays) (Zea mays; application to foliage): 3 (Herbicidal ratio of 40% or more and less than 70%); effect on crop, d (directly sowed Oryza sativa) ([4]; application to foliage): 4 (Herbicidal ratio of 70% or more and less than 90%)
CSCCn1nnnc1NC(=O)c1ccc(C(F)(F)F)n2c(C(C)C)nnc12 [2-048]	4 (Herbicidal ratio of 70% or more and less than 90%)	3 (Herbicidal ratio of 40% or more and less than 70%)	4 (Herbicidal ratio of 70% or more and less than 90%)	5 (Herbicidal ratio of 90% or more (almost completely withered))	5 (Herbicidal ratio of 90% or more (almost completely withered))	4 (Herbicidal ratio of 70% or more and less than 90%)	4 (Herbicidal ratio of 70% or more and less than 90%)	4 (Herbicidal ratio of 70% or more and less than 90%)	5 (Herbicidal ratio of 90% or more (almost completely withered))	–
CC(C)CSc1nnc2c(C(=O)Nc3nnnn3C)ccc(C(F)(F)F)n12 [2-071]	4 (Herbicidal ratio of 70% or more and less than 90%)	3 (Herbicidal ratio of 40% or more and less than 70%)	3 (Herbicidal ratio of 40% or more and less than 70%)	5 (Herbicidal ratio of 90% or more (almost completely withered))	4 (Herbicidal ratio of 70% or more and less than 90%)	2 (Herbicidal ratio of 20% or more and less than 40%)	1 (Herbicidal ratio of 5% or more and less than 20%)	1 (Herbicidal ratio of 5% or more and less than 20%)	3 (Herbicidal ratio of 40% or more and less than 70%)	–
Cn1nnnc1NC(=O)c1ccc(C(F)(F)F)n2c(C3(C)CC3(Cl)Cl)nnc12 (stereo not drawn) [2-110]	–	3 (Herbicidal ratio of 40% or more and less than 70%)	–	–	–	–	–	–	–	a (transplanted Oryza sativa) effect on crop grade ([1]; application herbicide amount 320 g/ha): 4 (Herbicidal ratio of 70% or more and less than 90%); herbicidal effect, Q (Galium spurium) (Galium spurium; application to foliage): 5 (Herbicidal ratio of 90% or more (almost completely withered)); effect on crop, f (Beta vulgaris ssp. vulgaris) ([3]; application to foliage): 5 (Herbicidal ratio of 90% or more (almost completely withered)); effect on crop, g (Brassica campestris L.) (Brassica campestris L.; application to foliage): 4 (Herbicidal ratio of 70% or more and less than 90%); effect on crop, c (Glycine max) (Glycine max; application to foliage): 0 (Herbicidal ratio of 5% or less (almost no effect)); effect on crop, e (Triticum aestivum) (Triticum aestivum; application to foliage): 3 (Herbicidal ratio of 40% or more and less than 70%); effect on crop, b (Zea mays) (Zea mays; application to foliage): 4 (Herbicidal ratio of 70% or more and less than 90%); effect on crop, d (directly sowed Oryza sativa) ([4]; application to foliage): 4 (Herbicidal ratio of 70% or more and less than 90%)
COc1cccc(-c2nnc3c(C(=O)Nc4nnnn4C)ccc(C(F)(F)F)n23)c1 [2-044]	4 (Herbicidal ratio of 70% or more and less than 90%)	5 (Herbicidal ratio of 90% or more (almost completely withered))	3 (Herbicidal ratio of 40% or more and less than 70%)	5 (Herbicidal ratio of 90% or more (almost completely withered))	3 (Herbicidal ratio of 40% or more and less than 70%)	2 (Herbicidal ratio of 20% or more and less than 40%)	1 (Herbicidal ratio of 5% or more and less than 20%)	3 (Herbicidal ratio of 40% or more and less than 70%)	4 (Herbicidal ratio of 70% or more and less than 90%)	–
Cn1nnnc1NC(=O)c1ccc(C(F)(F)F)n2cnnc12 [2-001]	0 (Herbicidal ratio of 5% or less (almost no effect))	1 (Herbicidal ratio of 5% or more and less than 20%)	–	–	–	–	–	–	–	Q: herbicidal effect on Galium spurium (Galium spurium; [5]): 4 (Herbicidal ratio of 70% or more and less than 90%); f: effect on crop, Beta vulgaris ssp. vulgaris [3, 5]: 5 (Herbicidal ratio of 90% or more (almost completely withered)); g: effect on crop, Brassica campestris L. (Brassica campestris L.; [5]): 4 (Herbicidal ratio of 70% or more and less than 90%); d: effect on crop, Glycine max (Glycine max; [5]): 2 (Herbicidal ratio of 20% or more and less than 40%); e: effect on crop, Triticum aestivum (Triticum aestivum; [5]): 0 (Herbicidal ratio of 5% or less (almost no effect)); c: effect on crop, Zea mays (Zea mays; [5]): 0 (Herbicidal ratio of 5% or less (almost no effect)); b: effect on crop, directly sowed Oryza sativa [4, 5]: 0 (Herbicidal ratio of 5% or less (almost no effect))
